44 compounds from EP1724268A1, “COMPOUND HAVING TGF-BETA INHIBITORY ACTIVITY AND PHARMACEUTICAL COMPOSITION CONTAINING SAME” (KIRIN BEER KABUSHIKI KAISHA, priority 2004, dated 2005) can be followed below.

This experiment concerns TGFβ signal. Briefly: TGFβ signal inhibitory activity, (SBE)4-Luc reporter in A549 cells (Test Examples 1A and 1B). To be noted: for inhibition at 3 µM / inhibition at 10 µM / inhibition at 1 µM: Homo sapiens; for inhibition at 1 µM: test compound 1 µM. In kind it is cell-based, human. In a few lines: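 Stable A549 line carrying (SBE)4-Luc Smad3-binding reporter treated with compound plus TGFβ-1 (2 ng/ml) for 4 hr; luciferase read by chemiluminescence. Percent inhibition relative to TGFβ-only and untreated cells, tested at 3 µM and 10 µM, some also at 1 µM.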

Setting [1] is: A549, 3 µM, compounds of Reference Examples (Test Example 1B), read-out: TGFβ inhibition rate, %.
[2] abbreviates: A549, 10 µM, compounds of Reference Examples (Test Example 1B), read-out: TGFβ inhibition rate, %.
[3] abbreviates: A549, test compound 3 µM, Reference Examples, Table 1B, read-out: TGFβ inhibition rate, %.
Setting [4] is: A549, test compound 10 µM, Reference Examples, Table 1B, read-out: TGFβ inhibition rate, %.
Setting [5] is: A549, test compound 3 µM, TGFβ-1 2 ng/ml, 4 hr, Table 1A, read-out: TGFβ inhibition rate, %.
[6] abbreviates: A549, test compound 10 µM, TGFβ-1 2 ng/ml, 4 hr, Table 1A, read-out: TGFβ inhibition rate, %.
Setting [7] is: A549, TGFβ-1 2 ng/ml, 4 hr, Table 1A, read-out: TGFβ inhibition rate, %.

Like-named read-outs stand apart in the source and are kept apart here.

What is called inhibition is how much of the control response was suppressed. As to `COc1cc2c(Oc3cc4ccccc4nc3C)ccnc2cc1OCCN(C)C` [Compound r355], under setting [1], the inhibition at 3 µM worked out at 100%. Further, the inhibition at 10 µM under setting [2] came out at 100%.
As to `COc1cc2nccc(Oc3cc4ccccc4nc3-c3ccccn3)c2cc1OC` [r287], the inhibition at 3 µM under setting [1] amounted to 100%. Under setting [2], the inhibition at 10 µM worked out at 100%.
Consider `COc1cc2nccc(Oc3cccc(C(=O)c4ccccc4)c3)c2cc1OC` [r77], for which the inhibition at 3 µM under setting [3] was 0%. Moreover, under setting [4], the inhibition at 10 µM turned out to be 46%.
On to `Cc1cc(Oc2ncnc3scc(C)c23)c(-c2ccccn2)nc1C` [Compound 34, 5,6-Dimethyl-3-(5-methyl-thieno[2,3-d]pyrimidin-4-yloxy)-[2,2'] bipyridine], for which, under setting [5], the inhibition at 3 µM stood at 94%. Further, the inhibition at 10 µM under setting [6] came to 100%.
The like results for `COc1cc2nccc(Oc3cc4cnccc4nc3-c3cccnc3)c2cc1OC` [Compound 95, 3-(6,7-Dimethoxy-quinolin-4-yloxy)-2-pyridin-3-yl-[1,6]naphthyridine] were, in that order, 40% and 85%.
Take `COc1cc2nccc(Oc3ccc(Cl)cc3C(=O)c3ccccc3)c2cc1OC` [Compound r69]: the inhibition at 3 µM (A549, read-out: TGFβ inhibition rate, %) was 100%.
Regarding `CCCOC(=O)c1cc2ccccc2cc1Oc1ccnc2cc(OCCCN3CCOCC3)c(OC)cc12` [Compound r326], the inhibition at 3 µM under setting [1] was found to be 83%. Moreover, under setting [2], the inhibition at 10 µM is 100%.
The like results for `COc1cc2nccc(Oc3cc4ccccc4nc3-c3ccc(F)cc3F)c2cc1OC` [r286] were, in that order, 93% and 100%.
The like results for `COc1cc2nccc(Oc3ccc(C)nc3-c3ccsc3)c2cc1OC` [r255] were, in that order, 93% and 100%.
Consider `COc1cc2nccc(Oc3ccc(C)nc3C#N)c2cc1OC` [Compound r213, 3-(6,7-Dimethoxy-quinolin-4-yloxy)-6-methyl-pyridin-2-carbonitrile], for which the inhibition at 3 µM under setting [1] was 28%. In addition, the inhibition at 10 µM under setting [2] was determined as 65%.
Consider `COc1ccc2nccc(Oc3cc(C)c(C)nc3-c3ccccn3)c2c1` [Compound 4, 3-(6-Methoxy-quinolin-4-yloxy)-5,6-dimethyl-[2,2']bipyridine], for which, under setting [7], the inhibition at 1 µM worked out at 94%. The inhibition at 3 µM under setting [5] turned out to be 100%.
As for `COc1ccc2ncnc(Oc3cc4cccnc4nc3-c3ccccc3)c2c1` [Compound 70, 6-Methoxy-4-(2-phenyl-[1,8]naphthyridin-3-yloxy)-quinazoline], the inhibition at 3 µM under setting [5] worked out at 61%. The inhibition at 10 µM under setting [6] was found to be 95%.
On to “4-(6-Fluoro-2-iodo-pyridin-3-yloxy)-6,7-dimethoxy-quinoline [Compound r211]”, for which the “TGFβ inhibition rate, %” value was found to be 87% (3 µM, compounds of Reference Examples (Test Example 1B)) and 100% (10 µM, compounds of Reference Examples (Test Example 1B)).
Regarding `COc1cc2ncnc(Oc3cc(C)c(C)nc3-c3ccc(C)cn3)c2cc1OC` [r437], the inhibition at 3 µM under setting [1] was 95%. Also, the inhibition at 10 µM under setting [2] was 100%.
The like results for `COc1cc2nccc(Oc3cc4ccccc4nc3Br)c2cc1OC` [Compound r281, 4-(2-Bromo-quinolin-3-yloxy)-6,7-dimethoxy-quinoline] were, in that order, 88% and 100%.
Turning to `CCN(CC)CC(O)COc1cc2nccc(Oc3ccc(C)cc3C(=O)c3ccccc3)c2cc1OC` (centres unmarked) [r153], under setting [3], the inhibition at 3 µM was determined as 100%. Under setting [4], the inhibition at 10 µM came out at 100%.
In the case of `COc1cc2c(Oc3cc4ccccc4nc3C)ccnc2cc1OCCn1ccnc1` [Compound r368], the inhibition at 3 µM under setting [1] is 100%. In addition, under setting [2], the inhibition at 10 µM was determined as 100%.
As to `CCCOC(=O)c1cc2ccccc2cc1Oc1ccnc2cc(OCCn3ccnc3)c(OC)cc12` [Compound r324], the inhibition at 3 µM under setting [1] amounted to 86%. Further, the inhibition at 10 µM under setting [2] is 100%.
`COc1ccc(Oc2ccnc3cc(OC)c(OC)cc23)c(C(=O)NC(C)C)c1` [Compound r111]: the inhibition at 3 µM under setting [3] was found to be 29%. Moreover, the inhibition at 10 µM under setting [4] came to 92%.
As to `Cc1cc(Oc2ccnc3ccc(Cl)cc23)c(-c2ccccn2)nc1C` [Compound 156, 3-(6-Chloro-quinolin-4-yloxy)-5,6-dimethyl-[2,2']bipyridine], the inhibition at 3 µM under setting [5] worked out at 100%. Also, the inhibition at 10 µM under setting [6] was found to be 100%.
For the compound `CCc1ccc(Oc2ccnc3ccc(OCCNS(C)(=O)=O)cc23)c(-c2ncccn2)n1` [Compound 203, N-{2-[4-(6-Ethyl-2-pyrimidin-2-yl-pyridin-3-yloxy)-quinolin-6-yloxy]-ethyl}-methanesulfonic acid amide], the inhibition at 3 µM under setting [5] worked out at 79%.
For `COc1cc2c(Oc3cc4ccccc4nc3C)ccnc2cc1OC(CO)CO` [Compound r374], under setting [1], the inhibition at 3 µM was determined as 26%. Further, the inhibition at 10 µM under setting [2] turned out to be 79%.
The like results for `COc1cc2c(Oc3cc(C)c(C)nc3-c3nc(C)c(C)s3)ccnc2cc1OCC1CO1` (centres unmarked) [Compound r458] were, in that order, 94% and 100%.
For the compound `Cc1ccc(Oc2ccnc3ccc(OCC(C)(C)CO)cc23)c(-c2ncccn2)n1` [Compound 215, 2,2-Dimethyl-3-[4-(6-methyl-2-pyrimidin-2-yl-pyridin-3-yloxy)-quinolin-6-yloxy]-propan-1-ol], the inhibition at 3 µM under setting [5] was 79%.
Consider `COc1cc2nccc(Oc3cc4ccncc4cc3C)c2cc1OC` [Compound r300, 6,7-Dimethoxy-4-(7-methyl-isoquinolin-6-yloxy)-quinoline], for which the inhibition at 3 µM under setting [1] stood at 9%. Besides, the inhibition at 10 µM under setting [2] is 63%.
In the case of `COc1cc2c(Oc3cc(C)c(C)nc3-c3ccc(C)cn3)ccnc2cc1OCCCl` [Compound r466], the inhibition at 3 µM under setting [1] is 99%. The inhibition at 10 µM under setting [2] was 100%.
Regarding `COc1cc2c(Oc3ccc(C)cc3C(=O)c3ccccc3)ccnc2cc1OCCCCN1CCOCC1` [Compound r149], under setting [3], the inhibition at 3 µM came out at 96%. Under setting [4], the inhibition at 10 µM came to 100%.
The like results for `CCOC(=O)c1cc(C(C)=O)ccc1Oc1ccnc2cc(OC)c(OC)cc12` [Compound r88] were, in that order, 70% and 94%.
Take `CCOC(=O)c1c(C)cccc1Oc1ccnc2cc(OC)c(OC)cc12` [Compound r92]: under setting [3], the inhibition at 3 µM amounted to 25%. Also, under setting [4], the inhibition at 10 µM is 82%.
With `COc1cc2nccc(Oc3cc(C)c(C)nc3-c3cnccc3C)c2cc1OC` [r435], under setting [1], the inhibition at 3 µM was 29%. In addition, the inhibition at 10 µM under setting [2] came out at 79%.
Turning to `COc1cc2nccc(Oc3cc4cccnc4nc3-c3ccccc3)c2cc1F` [Compound 59, 3-(6-Fluoro-7-methoxy-quinolin-4-yloxy)-2-phenyl-[1,8]naphthyridine], the inhibition at 1 µM under setting [7] was determined as 93%.
For `COc1cc2c(Oc3cc(C)c(C)nc3-c3ccc(C)cn3)ccnc2cc1O` [Compound r453], the inhibition at 3 µM under setting [1] came to 72%. For the same compound, the inhibition at 10 µM under setting [2] stood at 98%.
The like results for `COc1cc2nccc(Oc3cc4ccncc4cc3Br)c2cc1OC` [Compound r301, 4-(7-Bromo-isoquinolin-6-yloxy)-6,7-dimethoxy-quinoline] were, in that order, 20% and 75%.
The like results for `COc1cc2c(Oc3cc(C)c(C)nc3-c3cccc(C)n3)ccnc2cc1OCCO` [Compound r450] were, in that order, 94% and 100%.
The like results for `CCOC(=O)C1CCN(CCOc2cc3nccc(Oc4cc5ccccc5nc4C)c3cc2OC)CC1` [Compound r363] were, in that order, 100% and 100%.
On to `COc1cc2c(Oc3cc4cccnc4nc3C)ccnc2cc1OCCO` [Compound r400], for which, under setting [1], the inhibition at 3 µM came to 82%. Further, the inhibition at 10 µM under setting [2] was 100%.
Turning to `COc1cc2nccc(Oc3ccccc3C(=O)OCC(C)C)c2cc1OC` [Compound r97], the inhibition at 3 µM under setting [3] was determined as 14%. Also, under setting [4], the inhibition at 10 µM was 92%.
Turning to `CCc1ccc(Oc2ccnc3cc(C(C)(C)C)sc23)c(-c2ccccn2)n1` [Compound 180, 3-(2-Tert-butyl-thieno[3,2-b]pyridin-7-yloxy)-6-ethyl-[2,2']bipyridine], the inhibition at 3 µM under setting [5] worked out at 74%. For the same compound, the inhibition at 10 µM under setting [6] came to 98%.
With `COc1cc2c(Oc3cc4ccccc4nc3C)ccnc2cc1OC[C@@H](O)CO` [Compound r385], the inhibition at 3 µM under setting [1] was 100%. Further, under setting [2], the inhibition at 10 µM is 100%.
With `COc1ccc(Oc2ccnc3cc(OC)c(OC)cc23)c(C=O)c1` [Compound r26], the inhibition at 3 µM under setting [3] is 20%. Besides, under setting [4], the inhibition at 10 µM was 73%.
`Cc1cc(Oc2ccnc3ccc(C(F)(F)F)cc23)c(-c2ccccn2)nc1C` [Compound 3, 5,6-Dimethyl-3-(6-trifluoromethyl-quinolin-4-yloxy)-[2,2']bipyridine]: under setting [7], the inhibition at 1 µM stood at 79%. Besides, under setting [5], the inhibition at 3 µM stood at 99%.
For `COc1cc2nccc(Oc3cc4ccccc4nc3C(=O)c3ccccc3)c2cc1OC` [r279], the inhibition at 3 µM under setting [1] amounted to 98%. Moreover, the inhibition at 10 µM under setting [2] was 100%.
Consider `COc1cc2c(Oc3cc(C)c(C)nc3-c3cccnc3)ccnc2cc1OCc1ccccc1` [Compound r344], for which, under setting [1], the inhibition at 3 µM came out at 92%.
With `c1cnc2nc(-c3csc4ccccc34)c(Oc3ccnc4ccccc34)cc2c1` [Compound 90, 2-Benzo[b]thiophen-3-yl-3-(quinolin-4-yloxy)-[1,8]naphthyridine], under setting [5], the inhibition at 3 µM was determined as 22%. The inhibition at 10 µM under setting [6] was 68%.
